Measured values published in PubChem BioAssay (NCI).
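Protocol summary: plate cells (96-well), add compound at 5 concentrations, incubate 48 h, interpolate endpoints linearly. Here, GI50 denotes the concentration required for 50% inhibition of growth. Definition used: TGI = concentration required for complete inhibition of growth.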

How the values were obtained:
Experiment in all cases: NCI tumour cell line growth inhibition, 48 h
786-0 renal = system: 786-0 renal
CAKI-1 renal = system: CAKI-1 renal
HCT-15 colon = system: HCT-15 colon
IGROV1 ovarian = system: IGROV1 ovarian
MCF7 breast = system: MCF7 breast
MOLT-4 leukemia = system: MOLT-4 leukemia
OVCAR-8 ovarian = system: OVCAR-8 ovarian
SF-539 CNS = system: SF-539 CNS
SK-MEL-28 melanoma = system: SK-MEL-28 melanoma
SW-620 colon = system: SW-620 colon

Compound	GI50 (786-0 renal) [µM]	TGI (786-0 renal) [µM]	GI50 (CAKI-1 renal) [µM]	TGI (CAKI-1 renal) [µM]	GI50 (HCT-15 colon) [µM]	TGI (HCT-15 colon) [µM]	GI50 (IGROV1 ovarian) [µM]	TGI (IGROV1 ovarian) [µM]	GI50 (MCF7 breast) [µM]	TGI (MCF7 breast) [µM]	GI50 (MOLT-4 leukemia) [µM]	TGI (MOLT-4 leukemia) [µM]	GI50 (OVCAR-8 ovarian) [µM]	TGI (OVCAR-8 ovarian) [µM]	GI50 (SF-539 CNS) [µM]	TGI (SF-539 CNS) [µM]	GI50 (SK-MEL-28 melanoma) [µM]	TGI (SK-MEL-28 melanoma) [µM]	GI50 (SW-620 colon) [µM]	TGI (SW-620 colon) [µM]
Cc1cc(I)cc(CNCCCN2CCSCC2)c1O	13	25.8	15.1	32.7	17.7	35.9	13.8	29.7	15.1	31.6	15.1	33.9	17.4	34	16.8	30.8	17	32.4	16.5	30.3
Nc1ccn(C2O[C@H](CO)[C@@H](O)[C@@H]2O)c(=O)n1 (stereo partly drawn)	–	> 100	–	> 100	–	> 100	–	> 100	27.1	> 100	16.1	> 100	53.8	> 100	–	> 100	–	> 100	–	> 100
Cc1nn(CN2CCN(C)CC2)c(=S)n1/N=C/c1cccc2ccccc12	21.3	44.6	28.2	73.5	16	33.5	19.4	55.1	20.1	50.9	19.1	41.5	19.1	37	18.3	34.7	17	34.3	31.4	> 100
CC1OC(n2cc(F)c(=O)[nH]c2=O)CCC1O (stereo not drawn)	–	> 100	–	> 100	–	> 100	–	> 100	–	> 72.3	–	> 100	–	> 100	–	84.4	–	> 100	–	> 100
CNC(=O)OCc1c(COC(=O)NC)c(-c2ccc(Cl)c(Cl)c2)n2c1SCC2	–	> 46.8	–	23.9	–	28.1	3.16	26.9	–	27.2	–	47.3	–	39.8	–	26.9	–	37.3	–	26.3
O=C1/C(=C/c2ccc(Br)cc2)C=C(c2ccccc2)N1CCc1ccccc1	0.647	2.8	1.23	7.6	11.7	> 100	1.71	12	3.42	32.7	18.4	> 100	1.04	10	1.77	5.57	2.75	17	5.34	> 100
COc1ccc(C2=NN(C(=O)c3cc(OC)c(OC)c(OC)c3)C(c3ccc(C#N)cc3)C2)cc1OC (stereo not drawn)	2.14	> 48.8	0.412	7.15	1.48	> 64.8	1.18	18.9	0.512	> 88.9	4.27	> 100	3.26	> 42.7	0.882	–	1.3	> 55	1.26	> 100
Cn1c(N2NC(=O)C(N=Nc3ccc(S(N)(=O)=O)cc3)C2=O)nc(-c2ccco2)c(C#N)c1=O (stereo not drawn)	> 50	> 50	11.9	> 50	8.44	22.1	> 50	> 50	14.7	> 50	9.27	27.8	> 50	> 50	> 50	> 50	11.7	45.5	9.23	28.6
N#C/C(=C1C=C/C(=N/O)C(Br)=C/1)c1ccccc1	3.19	14.7	0.7	12.7	2.41	> 100	2.16	12.2	0.323	11.3	2.93	11.5	2.61	8.41	1.09	2.75	10.3	31.1	0.637	10.8
CC1OC(O[C@H]2C[C@@H](O)[C@]3(CO)[C@H]4[C@H](O)C[C@]5(C)[C@@H](C6=CC(=O)OC6)CC[C@]5(O)[C@@H]4CC[C@]3(O)C2)C(O)C(O)C1O (stereo partly drawn)	19.9	36.3	17.7	33.9	17.3	31.9	19.7	36.7	22.9	42.7	17.9	41.8	19.2	34.8	21.4	39.5	21.7	46.3	22.5	48.7
CCOc1cccc(/C=N/NC(=O)c2ccccc2Nc2ccnc(C(F)(F)F)c2)c1O	1.32	24	0.222	10.5	0.195	> 100	0.0425	0.243	0.34	25.4	0.116	0.459	0.449	> 100	0.501	6.33	1.37	98.3	1.23	> 100
O=C(NCCOCCOCCNc1cccc2c1C(=O)N(C1CCCNC1=O)C2=O)c1cc2c(o1)C(=O)c1ccccc1C2=O (stereo not drawn)	3.26	10.9	2.75	9.3	2.06	5.5	1.99	5.33	1.25	3.21	2.4	6.01	2.31	10.6	1.75	3.18	2.31	4.61	2.35	7.52
COc1ccc(/C(=C2\O[C@@H]([C@H]3COC(C)(C)O3)[C@H]3OC(C)(C)O[C@@H]23)c2cc(OC)c(OC)c(OC)c2)cc1O	21.1	60.6	37.3	> 100	4.51	> 100	33.2	> 100	3.78	> 100	6.93	> 100	5.27	> 100	2.59	6.63	5.45	> 100	4.05	> 100
CC1=C(C(=O)Nc2ccc3[nH]ncc3c2)C(c2ccc3ccccc3c2)CC(=O)N1 (stereo not drawn)	15.1	> 25	> 16.9	> 25	> 25	> 25	8.08	> 25	24.4	> 25	> 25	> 25	> 25	> 25	9.18	> 25	> 22.2	> 25	9.97	> 25
Cc1cc(N(CCOS(C)(=O)=O)CCOS(C)(=O)=O)ccc1C=Nc1ccc(-c2nc(Cc3ccccc3)sc2C)cc1	–	15.1	–	9.2	–	35.2	–	28	–	49.7	–	22.4	–	41.8	–	14.8	–	35.3	–	45.4
COC(=O)CCCCN=Cc1c(O)c(O)c(C(C)C)c2cc(C)c(-c3c(C)cc4c(C(C)C)c(O)c(O)c(C=NCCCCC(=O)OC)c4c3O)c(O)c12	1.34	15.1	1.17	> 32.5	1.06	> 32.5	1.41	> 32.5	0.917	6.26	0.783	19.2	0.959	> 32.5	1.53	> 32.5	1.77	> 32.5	1.27	> 32.5
Cc1ccc(S(=O)(=O)N(CCOc2ccc(/C(N)=N/Cl)cc2)CCOc2ccc(/C(N)=N\Cl)cc2)cc1	34.6	> 100	76.6	> 100	> 100	> 100	11.7	40.7	8.08	> 100	30.6	> 100	12	> 100	11	27.2	25.7	> 100	26.9	> 100
CSc1ccc(C2=NN(C(C)=O)C(c3cc(C)cs3)C2)cc1 (stereo not drawn)	40	> 100	28.4	> 100	24.6	> 100	29.7	> 100	16.2	46.3	7.26	44.1	32	> 100	39.8	> 100	37	> 100	38.2	> 100
COC(=O)c1cc2c3ccccc3[nH]c2c2ncccc12	61.2	> 100	8.12	> 100	21.4	> 100	2.09	> 100	14.4	> 100	> 100	> 100	61.2	> 100	17.4	> 100	85.8	> 100	38.4	> 100
CCc1c(Oc2ccc(C(C)=O)cc2)c2ccccc2[nH]c1=O	21.7	> 72.1	15.8	53.3	16.4	96.8	28.8	> 100	10.5	> 71.7	28	> 100	19.1	53.4	15.7	38.6	50.7	> 100	22.2	67.4
